# Laboratory results published in US20260364185A1, “Estrogen Receptor Modulator and Use Thereof” (JIANGSU VCARE PHARMATECH CO., LTD., priority 2023, published 2026).
# Columns and labels:
# MCF7 cells = assay: MCF7 cell activity test (CCK8 proliferation inhibition); assay type: cell-based; conditions: Homo sapiens, MCF7, 144 h, 6 days incubation
# Procedure: Experimental Example 1: MCF7 cell activity test
# Cell culture: MCF7 cells (culture conditions: MEM medium+20% FBS+1% essential amino acids++1 mg/100 ml insulin, 37° C., 5% CO2). Plating: The cells subcultured into the logarithmic growth phase were collected and transferred into a centrifuge tube, and centrifuged at 800 rpm for 5 min. The cells were resuspended in complete medium and counted. The cells were diluted and adjusted to a final concentration of 30,000 cells/mL. The cells were then seeded into a 96-well plate with 100 μL per well and incubated in an incubator overnight. Administration: Each group of drug solutions was added into the 96-well plate, 100 μL per well, n=3 for each drug concentration. Meanwhile, negative wells (n=6) and blank wells (n=3) were set up. The 96-well plate was incubated in the incubator for further 6 days. CCK8 reagent was added to the 96-well plate, 20 μL per well, and then the plate was placed in the incubator for further 4 h. The absorbance of the solution was measured at a wavelength of 450 nm using an enzyme reader. The proliferation inhibition rate was calculated and the half inhibitory concentration IC50 value was calculated using Graphpad Prism 6.0 software.
# MCF-7 tumor = assay: In vivo tumor inhibitory activity test (MCF-7 tumor, estradiol-supplemented mice); conditions: 5 mg/kg/d (I.V.), Day 19, relative tumor volume inhibition rate, P < 0.05
# Procedure: Experimental Example 3: In Vivo Tumor Inhibitory Activity Test
# MCF-7 cell culture (culture conditions: MEM medium+20% FBS+1% essential amino acids ++1 mg/100 ml insulin, 37° C., 5% CO2). The cells subcultured into the logarithmic growth phase were collected and transferred into a centrifuge tube, and centrifuged at 800 rpm for 5 min. On the day of inoculation, the cell density was adjusted to 3*10^7 cells/mL. […]
# Grouped administration: When the average tumor volume reached 80-150 mm^3, the animals were randomly grouped according to tumor volume, with the coefficient of variation (CV) of tumor volumes not exceeding ⅓ of the mean volume. […] The body weight of the mice was measured before administration, and the administration was based on the body weight on that day. Experimental observation and data collection: After cell inoculation, the effect of the tumor on the normal behavior of the animals was routinely monitored every week. […] After the start of administration, the mice were weighed and dosed daily, and tumor volume was measured twice a week. The tumor volume was calculated as follows: tumor volume (mm^3)=0.52×tumor long diameter (mm) x tumor short diameter (mm) 2. […]
# [formula] […] All data were analyzed using GraphPad Prism 6.0.
smiles,measurement,setting,value
"Cn1nc(N2CCC(=O)NC2=O)c2cc(F)c(C3(O)CCN(C[C@@H]4CCCC[C@H]4CN4CCN(c5ccc([C@@H]6c7ccc(O)cc7CC[C@@H]6c6ccccc6)cc5)CC4)CC3)cc21 [VI-23, 1-(5-fluoro-6-(4-hydroxy-1-(((1R, 2R)-2-((4-(4-((1R, 2S)-6-hydroxy-2-phenyl-1,2,3,4-tetrahydronaphthalen-1-yl)phenyl)piperazin-1-yl)methyl)cyclohexyl)methyl)piperidin-4-yl)-1-methyl-1H-indazol-3-yl)dihydropyrimidine-2,4 (1H, 3H)-dione]",IC50,MCF7 cells,< 25 nM
same,TGI (Day 19),MCF-7 tumor,77.9%
"C[C@H]1CC(O)(c2cc3c(cc2F)c(N2CCC(=O)NC2=O)nn3C)CCN1C[C@@H]1CCCC[C@H]1CN1CCN(c2ccc([C@@H]3c4ccc(O)cc4CC[C@@H]3c3ccccc3)cc2)CC1 (stereo partly drawn) [VI-30, 1-(5-fluoro-6-((2S)-4-hydroxy-1-(((1R,2R)-2-((4-(4-((1R,2S)-6-hydroxy-2-phenyl-1,2,3,4-tetrahydronaphthalen-1-yl)phenyl)piperazin-1-yl)methyl)cyclohexyl)methyl)-2-methylpiperidin-4-yl)-1-methyl-1H-indazol-3-yl)dihydropyrimidine-2,4 (1H,3H)-dione]",IC50,MCF7 cells,< 50 nM
"Cn1c(=O)n(C2CCC(=O)NC2=O)c2cccc(N3CCN(C[C@@H]4CCCC[C@H]4CN4CCN(c5ccc([C@@H]6c7ccc(O)cc7CC[C@@H]6c6ccccc6)cc5)CC4)CC3)c21 (stereo partly drawn) [VII-1, 3-(4-(4-(((1R,2R)-2-((4-(4-((1R,2S)-6-hydroxy-2-phenyl-1,2,3,4-tetrahydronaphthalen-1-yl)phenyl)piperazin-1-yl)methyl)cyclohexyl)methyl)piperazin-1-yl)-3-methyl-2-oxo-2,3-dihydro-1H-benzo[d]imidazol-1-yl)piperidine-2,6-dione]",IC50,MCF7 cells,< 50 nM
Cn1c(=O)n(C2CCC(=O)NC2=O)c2ccc(N3CCN(C[C@@H]4CCCC[C@H]4CN4CCN(c5ccc([C@@H]6c7ccc(O)cc7CC[C@@H]6c6ccccc6)cc5)CC4)CC3)cc21 (stereo partly drawn) [VII-2],IC50,MCF7 cells,< 100 nM
Cn1c(=O)n(C2CCC(=O)NC2=O)c2cccc(C3CCN(C[C@@H]4CCCC[C@H]4CN4CCN(c5ccc([C@@H]6c7ccc(O)cc7CC[C@@H]6c6ccccc6)cc5)CC4)CC3)c21 (stereo partly drawn) [VII-3],IC50,MCF7 cells,< 100 nM
